The target of data set [1] is T1, human D2R/β-arrestin (Homo sapiens (Human), UniProt P14416). Nature of the data set: β-Arrestin agonist assay (PathHunter). The format is cell-based. The settings on record: CHO-K1 cell line expressing human D2R/β-arrestin. In a few lines: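 After compound incubation, detection reagent (Buffer:Emerald II:Galactor-Star, 19:5:1) added and luminescence or fluorescence read.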

Data set [2] has as its target T1, human D2R/β-arrestin. Nature of the data set: Gi/cAMP agonist assay (Lance Ultra cAMP, Forskolin). The format is cell-based. The settings on record: CHO-K1 cell line expressing human D2R/β-arrestin. In a few lines: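 Cells were plated and incubated before compounds were pin-transferred and incubated for 10 min at 37 °C. Forskolin was then added to stimulate cAMP. cAMP was detected by Lance Ultra TR-FRET using Eu-cAMP tracer and ULight-anti-cAMP antibody.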

Data set [3] deals with T1, human D2R/β-arrestin. The following applies: read-out: β-arrestin Antagonist.
Data set [4] concerns the target T1, human D2R/β-arrestin. The settings on record: read-out: cAMP Antagonist.
Data set [5] in a line: Microsomal stability, mouse.
A short description of data set [6]: Solubility in PBS. The settings on record: aqueous buffer. The format is physicochemical.
Data set [7] can be described thus: Microsomal stability, human. The format is in vitro ADME.
A short description of data set [8]: Microsomal stability, rat. The format is in vitro ADME.
Data set [9] addresses T1, human D2R/β-arrestin. Nature of the data set: cell-based. The following applies: β-arrestin Antagonist.
Data set [10] addresses T1, human D2R/β-arrestin. Put plainly: cell-based. The following applies: cAMP Antagonist.
Data set [11] is described as follows: Plasma stability, mouse.
Where [12] appears, read: CHO-K1 cell line expressing human D2R/β-arrestin, quinpirole used as agonist.

≈ marks a conversion by molar mass, not a printed value. Read-outs that look alike come from different tables or passages of the source.

Experimental findings from patent US10752588B2 (The Broad Institute, Inc., priority 2014, dated 2020) are described below.

T1 sequence (P14416 whole entry): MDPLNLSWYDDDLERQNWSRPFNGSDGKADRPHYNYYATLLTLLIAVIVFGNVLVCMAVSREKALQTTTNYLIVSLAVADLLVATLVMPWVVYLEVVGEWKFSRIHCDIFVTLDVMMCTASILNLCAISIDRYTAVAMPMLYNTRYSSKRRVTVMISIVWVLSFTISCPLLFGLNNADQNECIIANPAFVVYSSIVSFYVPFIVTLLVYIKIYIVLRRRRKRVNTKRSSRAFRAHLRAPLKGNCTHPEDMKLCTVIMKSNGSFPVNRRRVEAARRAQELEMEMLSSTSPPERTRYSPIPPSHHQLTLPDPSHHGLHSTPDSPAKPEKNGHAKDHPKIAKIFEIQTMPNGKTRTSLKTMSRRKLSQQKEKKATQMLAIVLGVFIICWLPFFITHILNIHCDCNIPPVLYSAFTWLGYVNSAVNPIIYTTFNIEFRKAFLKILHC

As for `O=C(NC(c1ccc(Cl)cc1)c1ccccn1)C1CCN(CCOc2ccccc2C(F)(F)F)CC1` (single isomer, unassigned) [Compound 6a], the 50% effective concentration (EC50) in data set [1] and in data set [2] was above 30 µM in each case. Also, the IC50 in data set [3] and in [4] was below 0.1 µM in each case. The “Microsomal Stability: % remaining after 60 minutes” value (“Microsomal Stability: % remaining” for short) in data set [5] is “m31%”.

Take `O=C(NC(c1ccc(Cl)cc1)c1ccccn1)C1CCN(CCOc2ccccc2C(F)(F)F)CC1` (single isomer, unassigned) [Compound 6b]: the concentration for a half-maximal effect (EC50) in [1] and in data set [2] was above 30 µM each time. The IC50 in [3] and in data set [4] was below 0.1 µM in each case. In addition, the “Microsomal Stability: % remaining” value in data set [5] is reported as “m2%”.

`COc1cccc(C(NC(=O)C2CCN(CCOc3ccccc3F)CC2)c2ccccn2)c1` (single isomer, unassigned) [Compound 22b, 1-(2-(2-fluorophenoxy)ethyl)-N-((3-methoxyphenyl)(pyridin-2-yl)methyl) piperidine-4-carboxamide]: the EC50 in [1] and in data set [2] was above 30 µM in each case. Besides, the IC50 in [3] and in [4] was 0.1 to 1 µM in each case. In addition, the “Microsomal Stability: % remaining” value in data set [5] is on record as “m12%”.

For `CC1(C(=O)NC(c2ccc(F)cc2)c2ccccn2)CCN(CCOc2ccccc2C(F)(F)F)CC1` (single isomer, unassigned) [Compound 70b, N-((4-fluorophenyl)(pyridin-2-yl)methyl)-4-methyl-1-(2-(2-(trifluoromethyl)phenoxy)ethyl) piperidine-4-carboxamide], the results for the EC50 in data set [1] and in [2] were above 30 µM and below 0.1 µM, respectively. Moreover, the IC50 in data set [3] is 1 to 10 µM; in [4], above 30 µM. In [5], the “Microsomal Stability: % remaining” value is “m0%”.

As for `Fc1ccc(C(NCC2CCN(CCOc3ccccc3)CC2)c2ccccn2)cc1` (single isomer, unassigned) [Compound 78b, 1-(4-fluorophenyl)-N-((1-(2-phenoxyethyl)piperidin-4-yl)methyl)-1-(pyridin-2-yl)methanamine], the half-maximal effective concentration (EC50) in [1] and in [2] was above 30 µM each time. Besides, the IC50 in [3] (setting [12]) and in data set [4] (setting [12]) was 1 to 10 µM throughout.

With `O=C(NC(c1ccc2c(c1)OCO2)c1ccccn1)C1CCN(CCOc2ccccc2F)CC1` (single isomer, unassigned) [Compound 95a, N-(benzo[d][1,3]dioxol-5-yl(pyridin-2-yl)methyl)-1-(2-(2-fluorophenoxy)ethyl) piperidine-4-carboxamide], the 50% effective concentration (EC50) in [1] and in data set [2] was above 30 µM throughout. The IC50 in [3] and in [4] was 0.1 to 1 µM throughout.

Regarding `O=C(NC(c1ccc2c(c1)OCO2)c1ccccn1)C1CCN(CCOc2ccccc2F)CC1` (single isomer, unassigned) [Compound 95b, N-(benzo[d][1,3]dioxol-5-yl(pyridin-2-yl)methyl)-1-(2-(2-fluorophenoxy)ethyl) piperidine-4-carboxamide], the results for the EC50 in data set [1] and in [2] were above 30 µM and 1 to 10 µM, respectively. In addition, the IC50 in [3] and in data set [4] was 0.1 to 1 µM in each case. The “Microsomal Stability: % remaining” value in data set [5] is “m12%”.

In the case of `O=C(NC(c1ccc(Cl)cc1)c1ccccc1F)C1CCN(CCOc2ccccc2F)CC1` (single isomer, unassigned) [Compound 96a, N-((4-chlorophenyl)(2-fluorophenyl)methyl)-1-(2-(2-fluorophenoxy)ethyl) piperidine-4-carboxamide], the figures for the concentration giving a half-maximal response (EC50) in [1] and in data set [2] were above 30 µM and 1 to 10 µM, respectively. For the same compound, the IC50 was 1 to 10 µM in data set [3] and above 30 µM in data set [4].

For `O=C(NC(c1ccc(Cl)cc1)c1ccccc1F)C1CCN(CCOc2ccccc2F)CC1` (single isomer, unassigned) [Compound 96b, N-((4-chlorophenyl)(2-fluorophenyl)methyl)-1-(2-(2-fluorophenoxy)ethyl) piperidine-4-carboxamide], the concentration giving a half-maximal response (EC50) in data set [1] and in [2] was above 30 µM in each case. Also, the IC50 in data set [3] and in [4] was 0.1 to 1 µM throughout.

Consider `c1ccc(OCCN2CCC(CNC(c3ccc4c(c3)OCO4)c3ccccn3)CC2)cc1` (single isomer, unassigned) [Compound 102b, 1-(benzo[d][1,3]dioxol-5-yl)-N-((1-(2-phenoxyethyl)piperidin-4-yl)methyl)-1-(pyridin-2-yl)methanamine], for which the 50% effective concentration (EC50) (usually the concentration needed to bring the measured effect to its halfway point) in data set [1] is above 30 µM; in data set [2], 1 to 10 µM. The IC50 in [3] (setting [12]) and in data set [4] (setting [12]) was 1 to 10 µM in each case.

For the compound `O=C(NC(c1cccc(OC(F)(F)F)c1)c1ccccn1)C1CCN(CCOc2ccccc2)CC1` (single isomer, unassigned) [Compound 118a, 1-(2-phenoxyethyl)-N-(pyridin-2-yl(3-(trifluoromethoxy)phenyl)methyl) piperidine-4-carboxamide], the results for the EC50 in data set [1] and in data set [2] were above 30 µM and 10 to 30 µM, respectively. Besides, the figures for the IC50 in data set [3] and in data set [4] were 10 to 30 µM and above 30 µM, respectively.

For `O=C(NC(c1cccc(OC(F)(F)F)c1)c1ccccn1)C1CCN(CCOc2ccccc2)CC1` (single isomer, unassigned) [Compound 118b, 1-(2-phenoxyethyl)-N-(pyridin-2-yl(3-(trifluoromethoxy)phenyl)methyl) piperidine-4-carboxamide], the EC50 is above 30 µM in data set [1] and 1 to 10 µM in [2]. Moreover, the IC50 is 1 to 10 µM in [3] and above 30 µM in [4]. Besides, the “Microsomal Stability: % remaining” value in data set [5] is on record as “m35%”.

With `O=C(NC(c1ccc2c(c1)OC(F)(F)O2)c1ccccn1)C1CCN(CCOc2ccccc2)CC1` (single isomer, unassigned) [Compound 119a], the EC50 in data set [1] and in data set [2] was above 30 µM each time. Moreover, the IC50 in data set [3] and in data set [4] was 1 to 10 µM throughout.

With `O=C(NC(c1ccc(Cl)cc1)c1ccccn1)C1CCN(CCOc2cccnc2)CC1` (stereo not shown) [Compound 10], the EC50 is above 30 µM in [1] and 0.1 to 1 µM in data set [2]. The solubility (in general, the dissolved amount per volume that the medium holds) in [6] is above 500 µM. The figures for the “Microsomal Stability: % remaining” value in data set [7], in data set [8] and in [5] were 75%, 57% and 44%, respectively. Besides, the IC50 in data set [9] (setting [12]) was 10 to 30 µM; in data set [10] (setting [12]), above 30 µM.

For the compound `O=C(NC(c1cccc(F)c1)c1ccccn1)C1CCN(CCOc2ccccc2)CC1` (stereo not shown) [Compound 27], the EC50 in data set [1] is above 30 µM; in [2], 0.1 to 1 µM. Also, the IC50 was 1 to 10 µM in data set [3] and above 30 µM in data set [4].

Consider `COc1cccc(C(NC(=O)C2CCN(CCOc3ccccc3)CC2)c2ccccn2)c1` (stereo not shown) [Compound 35a], for which the EC50 in data set [1] is above 30 µM; in data set [2] it was 10 to 30 µM. In addition, the IC50 in data set [3] and in [4] was 10 to 30 µM each time.

Regarding `COc1cccc(C(NCC2CCN(CCOc3ccccc3F)CC2)c2ccccn2)c1` (stereo not shown) [Compound 88, N-((1-(2-(2-fluorophenoxy)ethyl)piperidin-4-yl)methyl)-1-(3-methoxyphenyl)-1-(pyridin-2-yl)methanamine], the concentration for a half-maximal effect (EC50) in data set [1] is above 30 µM; in [2], below 0.1 µM. The compound further displayed a solubility in data set [6] of 461 µM (≈ 207 µg/mL). The IC50 in data set [9] (setting [12]) and in [10] (setting [12]) was 0.1 to 1 µM in each case. Further, the “Microsomal Stability: % remaining” value in data set [5] was “m1%”.

Take `CC(C)N(CC1CCN(CCOc2ccccc2)CC1)C(c1ccc(Cl)cc1)c1ccccn1` (stereo not shown) [Compound 103, N-((4-chlorophenyl)(pyridin-2-yl)methyl)-N-((1-(2-phenoxyethyl)piperidin-4-yl)methyl)propan-2-amine]: the concentration giving a half-maximal response (EC50) in data set [1] was above 30 µM; in [2], below 0.1 µM. For the same compound, the figures for the IC50 in data set [9] and in data set [10] were below 0.1 µM and above 30 µM, respectively. In addition, in data set [11], the “Plasma Stability: % remaining after 5 hours” value is on record as “m97%”. For the same compound, the “Microsomal Stability: % remaining” value in data set [5] is “m1%”.

`COc1ccccc1OCCN1CCC(C(=O)NC(c2ccc(Cl)cc2)c2ccccn2)CC1` (stereo not shown) [Compound 109, N-((4-chlorophenyl) (pyridin-2-yl)methyl)-1-(2-(2-methoxyphenoxy)ethyl)piperidine-4-carboxamide]: the concentration giving a half-maximal response (EC50) in [1] and in data set [2] was above 30 µM each time. In addition, the solubility in data set [6] is above 500 µM. Also, the “Microsomal Stability: % remaining” value was found to be 59% in data set [7], 57% in [8] and 40% in data set [5]. Besides, the IC50 in data set [9] (setting [12]) and in data set [10] (setting [12]) was below 0.1 µM throughout.
